Where a name gives a salt, the structure may show the parent alone.
Legend:
[1] = levodopa taken alone; cited from earlier work
[2] = test system: D2 subfamily of dopamine receptors; conditions: in vitro; cited from earlier work
[3] = biological target: D3 receptors (Homo sapiens, UniProt P35462); conditions: cited from earlier work
[4] = three times a day, pramipexole dihydrochloride tablets (Wright et al. 1997); cited from earlier work
[5] = Lowest effective concentration of sodium metabisulfite on pramipexole color stability (Example 4); format: physicochemical; conditions: pramipexole hydrochloride 2.00% (FBE) hydro-alcoholic mixture at apparent pH around 8.0
Protocol: A formulation free of antioxidants served as a blank reference (Formulation F).
In parallel, samples stored at 40° C. in a climatic chamber (C-20/600, Climat Temperatur System, Hechingen, Germany) for 1 month were assessed for color as well. […] The formulation containing the lowest level of sodium metabisulfite (0.10% wt, formulation C) was ranked “BY2”. All the other formulations were colorless.

D3 receptors, sequence (P35462 whole entry): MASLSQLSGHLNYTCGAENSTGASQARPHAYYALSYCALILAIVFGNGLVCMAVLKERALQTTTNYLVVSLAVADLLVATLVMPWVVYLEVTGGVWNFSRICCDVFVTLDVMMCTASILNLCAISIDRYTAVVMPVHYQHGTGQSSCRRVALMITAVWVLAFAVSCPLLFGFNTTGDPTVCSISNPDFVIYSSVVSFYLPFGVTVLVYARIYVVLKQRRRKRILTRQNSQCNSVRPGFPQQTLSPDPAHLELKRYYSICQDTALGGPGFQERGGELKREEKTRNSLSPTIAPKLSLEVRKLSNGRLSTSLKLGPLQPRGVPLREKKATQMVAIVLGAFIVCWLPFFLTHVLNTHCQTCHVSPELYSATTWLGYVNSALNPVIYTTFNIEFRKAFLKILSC

In the case of `N[C@@H](Cc1ccc(O)c(O)c1)C(=O)O` [levodopa], the “fraction of the drug broken down into dopamine before it reaches the brain” value [1] is given as “about 95%”.
For `CCCN[C@H]1CCc2nc(N)sc2C1` [pramipexole, (S)-2-amino-4,5,6,7-tetrahydro-6-(propylamino)benzothiazole dihydrochloride monohydrate], the “intrinsic activity at the D2 subfamily of dopamine receptors” value [2] is listed as “full intrinsic activity”, the “affinity for D3 receptors relative to D2 or D4 receptor subtypes” value [3] is listed as “higher affinity than to D2 or D4 receptor subtypes” and the steady-state pharmacokinetic characteristics [4] is listed as “linear up to a daily dose of 4.5 mg”.
In the case of `O=S([O-])S(=O)(=O)[O-].[Na+].[Na+]` [sodium metabisulfite, Sodium metabisulfite], the “minimal amount of sodium metabisulfite preventing color degradation” value [5] was 0.2 % wt.
